Assay results: ChEMBL document CHEMBL1156106 (J Med Chem, 2009)

Columns and labels:
Rattus norvegicus [1] = assay: Effect on behavioural activity in rat assessed as cocaine-induced lever response at 0.25 mg/kg, ip pretreated with cocaine for 15 mins by drug-discrimination studies; format: functional; details: route intraperitoneal
Rattus norvegicus [2] = assay: Effect on behavioural activity in rat assessed as cocaine-induced lever response at 0.5 mg/kg, po pretreated with cocaine for 180 mins by drug-discrimination studies; format: functional
Rattus norvegicus [3] = assay: Effect on behavioural activity in rat assessed as cocaine-induced lever response at 2.5 mg/kg, po pretreated with cocaine for 90 mins by drug-discrimination studies; format: functional
Rattus norvegicus [4] = assay: Effect on behavioural activity in rat assessed as cocaine-induced lever response at 0.25 mg/kg, po pretreated with cocaine for 180 mins by drug-discrimination studies; format: functional
Rattus norvegicus [5] = assay: Effect on behavioural activity in rat assessed as cocaine-induced lever response at 2.5 mg/kg, ip pretreated with cocaine for 15 mins by drug-discrimination studies; format: functional; details: route intraperitoneal
Mus musculus [6] = assay: Antidepressant activity in ip dosed mouse assessed as stimulation of locomotor activity relative to cocaine; format: functional
Rattus norvegicus [7] = assay: Effect on behavioural activity in rat assessed as cocaine-induced lever response at 0.25 mg/kg, po pretreated with cocaine for 90 mins by drug-discrimination studies; format: functional
Rattus norvegicus [8] = assay: Effect on behavioural activity in rat assessed as cocaine-induced lever response at 0.5 mg/kg, po pretreated with cocaine for 45 mins by drug-discrimination studies; format: functional
Rattus norvegicus [9] = assay: Effect on behavioural activity in rat assessed as cocaine-induced lever response at 10 mg/kg, ip pretreated with cocaine for 15 mins by drug-discrimination studies; format: functional; details: route intraperitoneal
Rattus norvegicus [10] = assay: Effect on behavioural activity in rat assessed as cocaine-induced lever response at 10 mg/kg, po pretreated with cocaine for 180 mins by drug-discrimination studies; format: functional
Rattus norvegicus [11] = assay: Effect on behavioural activity in rat assessed as cocaine-induced lever response at 25 mg/kg, po pretreated with cocaine for 360 mins by drug-discrimination studies; format: functional
Rattus norvegicus [12] = assay: Effect on behavioural activity in rat assessed as cocaine-induced lever response at 0.5 mg/kg, po pretreated with cocaine for 360 mins by drug-discrimination studies; format: functional
Rattus norvegicus [13] = assay: Effect on behavioural activity in rat assessed as cocaine-induced lever response at 25 mg/kg, ip pretreated with cocaine for 15 mins by drug-discrimination studies; format: functional; details: route intraperitoneal
Rattus norvegicus [14] = assay: Effect on behavioural activity in rat assessed as cocaine-induced lever response at 1 mg/kg, po pretreated with cocaine for 360 mins by drug-discrimination studies; format: functional
Rattus norvegicus [15] = assay: Effect on behavioural activity in rat assessed as cocaine-induced lever response at 1 mg/kg, po pretreated with cocaine for 180 mins by drug-discrimination studies; format: functional
Rattus norvegicus [16] = assay: Effect on behavioural activity in rat assessed as cocaine-induced lever response at 25 mg/kg, po pretreated with cocaine for 45 mins by drug-discrimination studies; format: functional
Rattus norvegicus [17] = assay: Effect on behavioural activity in rat assessed as cocaine-induced lever response at 10 mg/kg, po pretreated with cocaine for 90 mins by drug-discrimination studies; format: functional
Rattus norvegicus [18] = assay: Effect on behavioural activity in rat assessed as cocaine-induced lever response at 0.25 mg/kg, po pretreated with cocaine for 360 mins by drug-discrimination studies; format: functional
Rattus norvegicus [19] = assay: Effect on behavioural activity in rat assessed as cocaine-induced lever response at 0.5 mg/kg, po pretreated with cocaine for 90 mins by drug-discrimination studies; format: functional
Rattus norvegicus [20] = assay: Effect on behavioural activity in rat assessed as cocaine-induced lever response at 25 mg/kg, po pretreated with cocaine for 180 mins by drug-discrimination studies; format: functional
Rattus norvegicus [21] = assay: Effect on behavioural activity in rat assessed as cocaine-induced lever response at 1 mg/kg, po pretreated with cocaine for 41 mins by drug-discrimination studies; format: functional
Rattus norvegicus [22] = assay: Effect on behavioural activity in rat assessed as cocaine-induced lever response at 5 mg/kg, ip pretreated with cocaine for 15 mins by drug-discrimination studies; format: functional; details: route intraperitoneal
Rattus norvegicus [23] = assay: Effect on behavioural activity in rat assessed as cocaine-induced lever response at 2.5 mg/kg, po pretreated with cocaine for 180 mins by drug-discrimination studies; format: functional
Rattus norvegicus [24] = assay: Effect on behavioural activity in rat assessed as cocaine-induced lever response at 25 mg/kg, po pretreated with cocaine for 90 mins by drug-discrimination studies; format: functional
Rattus norvegicus [25] = assay: Effect on behavioural activity in rat assessed as cocaine-induced lever response at 1 mg/kg, ip pretreated with cocaine for 15 mins by drug-discrimination studies; format: functional; details: route intraperitoneal
Rattus norvegicus [26] = assay: Effect on behavioural activity in rat assessed as cocaine-induced lever response at 5 mg/kg, po pretreated with cocaine for 45 mins by drug-discrimination studies; format: functional
Rattus norvegicus [27] = assay: Effect on behavioural activity in rat assessed as cocaine-induced lever response at 2.5 mg/kg, po pretreated with cocaine for 360 mins by drug-discrimination studies; format: functional
Rattus norvegicus [28] = assay: Effect on behavioural activity in rat assessed as cocaine-induced lever response at 0.5 mg/kg, ip pretreated with cocaine for 15 mins by drug-discrimination studies; format: functional; details: route intraperitoneal
Rattus norvegicus [29] = assay: Effect on behavioural activity in rat assessed as cocaine-induced lever response at 5 mg/kg, po pretreated with cocaine for 90 mins by drug-discrimination studies; format: functional
Rattus norvegicus [30] = assay: Effect on behavioural activity in rat assessed as cocaine-induced lever response at 5 mg/kg, po pretreated with cocaine for 360 mins by drug-discrimination studies; format: functional
Mus musculus [31] = assay: Antidepressant activity in ip dosed mouse assessed as stimulation of locomotor activity; format: functional
Rattus norvegicus [32] = assay: Effect on behavioural activity in rat assessed as cocaine-induced lever response at 10 mg/kg, po pretreated with cocaine for 45 mins by drug-discrimination studies; format: functional
Rattus norvegicus [33] = assay: Effect on behavioural activity in rat assessed as cocaine-induced lever response at 1 mg/kg, po pretreated with cocaine for 90 mins by drug-discrimination studies; format: functional
Rattus norvegicus [34] = assay: Effect on behavioural activity in rat assessed as cocaine-induced lever response at 0.1 mg/kg, ip pretreated with cocaine for 15 mins by drug-discrimination studies; format: functional; details: route intraperitoneal
Rattus norvegicus [35] = assay: Effect on behavioural activity in rat assessed as cocaine-induced lever response at 5 mg/kg, po pretreated with cocaine for 180 mins by drug-discrimination studies; format: functional
Rattus norvegicus [36] = assay: Effect on behavioural activity in rat assessed as cocaine-induced lever response at 2.5 mg/kg, po pretreated with cocaine for 45 mins by drug-discrimination studies; format: functional
Mus musculus [37] = assay: Antidepressant activity in ip dosed mouse assessed as time to reach peak stimulation of locomotor activity; format: functional
Rattus norvegicus [38] = assay: Effect on behavioural activity in rat assessed as cocaine-induced lever response at 0.25 mg/kg, po pretreated with cocaine for 45 mins by drug-discrimination studies; format: functional
Rattus norvegicus [39] = assay: Effect on behavioural activity in po dosed rat assessed as cocaine-induced lever response pretreated with cocaine by drug-discrimination studies; format: functional
Mus musculus [40] = assay: Antidepressant activity in ip dosed mouse assessed as duration of locomotor activity; format: functional
Rattus norvegicus [41] = assay: Effect on behavioural activity in rat assessed as cocaine-induced lever response at 10 mg/kg, po pretreated with cocaine for 360 mins by drug-discrimination studies; format: functional
Rattus norvegicus [42] = assay: Effect on behavioural activity in rat assessed as cocaine-induced lever response at 20 mg/kg, po pretreated with cocaine for 180 mins by drug-discrimination studies; format: functional
Rattus norvegicus [43] = assay: Effect on behavioural activity in rat assessed as cocaine-induced lever response at 40 mg/kg, po pretreated with cocaine for 90 mins by drug-discrimination studies; format: functional
Rattus norvegicus [44] = assay: Effect on behavioural activity in rat assessed as cocaine-induced lever response at 40 mg/kg, po pretreated with cocaine for 360 mins by drug-discrimination studies; format: functional
Rattus norvegicus [45] = assay: Effect on behavioural activity in ip dosed rat assessed as cocaine-induced lever response pretreated with cocaine by drug-discrimination studies; format: functional
Rattus norvegicus [46] = assay: Effect on behavioural activity in rat assessed as cocaine-induced lever response at 20 mg/kg, po pretreated with cocaine for 90 mins by drug-discrimination studies; format: functional
[47] = target: Sodium-dependent serotonin transporter (Homo sapiens, UniProt P31645); assay: biochemical; format: cell-based, HEK293
Rattus norvegicus [48] = assay: Effect on behavioural activity in rat assessed as cocaine-induced lever response at 80 mg/kg, po pretreated with cocaine for 90 mins by drug-discrimination studies; format: functional
Rattus norvegicus [49] = assay: Effect on behavioural activity in rat assessed as cocaine-induced lever response at 20 mg/kg, po pretreated with cocaine for 360 mins by drug-discrimination studies; format: functional
Rattus norvegicus [50] = assay: Effect on behavioural activity in rat assessed as cocaine-induced lever response at 40 mg/kg, po pretreated with cocaine for 45 mins by drug-discrimination studies; format: functional
Rattus norvegicus [51] = assay: Effect on behavioural activity in rat assessed as cocaine-induced lever response at 80 mg/kg, po pretreated with cocaine for 360 mins by drug-discrimination studies; format: functional
Rattus norvegicus [52] = assay: Effect on behavioural activity in rat assessed as cocaine-induced lever response at 80 mg/kg, po pretreated with cocaine for 45 mins by drug-discrimination studies; format: functional
Rattus norvegicus [53] = assay: Effect on behavioural activity in rat assessed as cocaine-induced lever response at 20 mg/kg, po pretreated with cocaine for 45 mins by drug-discrimination studies; format: functional
Rattus norvegicus [54] = assay: Effect on behavioural activity in rat assessed as cocaine-induced lever response at 40 mg/kg, po pretreated with cocaine for 180 mins by drug-discrimination studies; format: functional
Rattus norvegicus [55] = assay: Effect on behavioural activity in rat assessed as cocaine-induced lever response at 80 mg/kg, po pretreated with cocaine for 180 mins by drug-discrimination studies; format: functional

Chain of Sodium-dependent serotonin transporter (P31645 whole entry): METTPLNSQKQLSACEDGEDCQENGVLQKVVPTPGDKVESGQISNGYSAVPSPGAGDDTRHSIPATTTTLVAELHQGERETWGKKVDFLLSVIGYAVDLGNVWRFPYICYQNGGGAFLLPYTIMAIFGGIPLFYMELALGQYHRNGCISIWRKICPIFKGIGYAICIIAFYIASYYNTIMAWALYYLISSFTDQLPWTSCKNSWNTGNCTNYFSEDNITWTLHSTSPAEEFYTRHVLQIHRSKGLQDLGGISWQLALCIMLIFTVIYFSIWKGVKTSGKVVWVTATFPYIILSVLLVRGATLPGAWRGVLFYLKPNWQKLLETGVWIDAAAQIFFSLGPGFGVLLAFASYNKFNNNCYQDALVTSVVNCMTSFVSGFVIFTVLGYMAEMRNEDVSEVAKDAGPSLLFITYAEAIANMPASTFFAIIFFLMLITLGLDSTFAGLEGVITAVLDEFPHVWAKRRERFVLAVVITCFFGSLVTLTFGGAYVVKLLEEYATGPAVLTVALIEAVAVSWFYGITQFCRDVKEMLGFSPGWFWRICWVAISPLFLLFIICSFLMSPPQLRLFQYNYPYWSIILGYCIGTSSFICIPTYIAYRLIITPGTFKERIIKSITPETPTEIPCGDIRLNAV

CC(NC1CC1)C(=O)c1cccc(Cl)c1 (stereo not given)
Activity (Rattus norvegicus [1]): 24% | Activity (Rattus norvegicus [2]): 0% | Activity (Rattus norvegicus [3]): 0% | Activity (Rattus norvegicus [4]): 0% | Activity (Rattus norvegicus [5]): 39.5% | Activity (Mus musculus [6]): 82% | Activity (Rattus norvegicus [7]): 0% | Activity (Rattus norvegicus [8]): 1% | Activity (Rattus norvegicus [9]): 66.7% | Activity (Rattus norvegicus [10]): 33% | Activity (Rattus norvegicus [11]): 0% | Activity (Rattus norvegicus [12]): 2% | Activity (Rattus norvegicus [13]): 66.3% | Activity (Rattus norvegicus [14]): 0% | Activity (Rattus norvegicus [15]): 0% | Activity (Rattus norvegicus [16]): 67% | Activity (Rattus norvegicus [17]): 33% | Activity (Rattus norvegicus [18]): 34% | Activity (Rattus norvegicus [19]): 16% | Activity (Rattus norvegicus [20]): 99% | Activity (Rattus norvegicus [21]): 0% | Activity (Rattus norvegicus [22]): 67.2% | Activity (Rattus norvegicus [23]): 34% | Activity (Rattus norvegicus [24]): 83% | Activity (Rattus norvegicus [25]): 21.5% | Activity (Rattus norvegicus [26]): 34% | Activity (Rattus norvegicus [27]): 0% | Activity (Rattus norvegicus [28]): 63% | Activity (Rattus norvegicus [29]): 0% | Activity (Rattus norvegicus [30]): 0% | ED50 (Mus musculus [31]): 16.6 mg/kg | Activity (Rattus norvegicus [32]): 74% | Activity (Rattus norvegicus [33]): 0% | Activity (Rattus norvegicus [34]): 9% | Activity (Rattus norvegicus [35]): 0% | Activity (Rattus norvegicus [36]): 34% | Time to peak locomotor stimulation (Mus musculus [37]): 0 min | Activity (Rattus norvegicus [38]): 0% | ED50 (Rattus norvegicus [39]): 12.8 mg/kg | Time (Mus musculus [40]): 350 min | Activity (Rattus norvegicus [41]): 0%

CCCC(NC(C)(C)C)C(=O)c1cccc(Cl)c1 (stereo not given)
Activity (Rattus norvegicus [42]): 0% | Activity (Rattus norvegicus [43]): 17% | Activity (Rattus norvegicus [3]): 0% | Activity (Rattus norvegicus [5]): 0.2% | Activity (Mus musculus [6]): 108% | Activity (Rattus norvegicus [44]): 16% | Activity (Rattus norvegicus [9]): 33.3% | ED50 (Rattus norvegicus [45]): 7.8 mg/kg | Activity (Rattus norvegicus [46]): 33% | Activity (Rattus norvegicus [13]): 83.3% | Ki [47]: > 10 µM | Activity (Rattus norvegicus [48]): 100% | Activity (Rattus norvegicus [17]): 0% | Activity (Rattus norvegicus [49]): 0% | Activity (Rattus norvegicus [50]): 50% | Activity (Rattus norvegicus [51]): 1% | Activity (Rattus norvegicus [52]): 100% | Activity (Rattus norvegicus [22]): 17.2% | Activity (Rattus norvegicus [23]): 0% | Activity (Rattus norvegicus [53]): 33% | Activity (Rattus norvegicus [26]): 17% | Activity (Rattus norvegicus [27]): 0% | Activity (Rattus norvegicus [29]): 0% | Activity (Rattus norvegicus [30]): 0% | ED50 (Mus musculus [31]): 15.5 mg/kg | Activity (Rattus norvegicus [32]): 33% | Activity (Rattus norvegicus [54]): 17% | Activity (Rattus norvegicus [35]): 22% | Activity (Rattus norvegicus [36]): 0% | Time to peak locomotor stimulation (Mus musculus [37]): 90 min | ED50 (Rattus norvegicus [39]): 23.2 mg/kg | Time (Mus musculus [40]): 210 min | Activity (Rattus norvegicus [41]): 0% | Activity (Rattus norvegicus [55]): 50%
